Data reported in patent US20180186796A1, “COMPOUNDS AND USES THEREOF” (LEAD DISCOVERY SIENA S.R.L., priority 2014, published 2018).
≈ marks a conversion by molar mass, not a printed value. Structures can show the parent of a compound that is named as a salt. Where two headings read alike, the source gives them in different places.

Legend:
Recombinant human Src = target: T1, Recombinant human Src (Homo sapiens, UniProt P12931); assay: Enzymatic assay on isolated Src; type: biochemical
T1 construct: purchased Upstate (Lake Placid, N.Y.)
T1 sequence (P12931 whole entry): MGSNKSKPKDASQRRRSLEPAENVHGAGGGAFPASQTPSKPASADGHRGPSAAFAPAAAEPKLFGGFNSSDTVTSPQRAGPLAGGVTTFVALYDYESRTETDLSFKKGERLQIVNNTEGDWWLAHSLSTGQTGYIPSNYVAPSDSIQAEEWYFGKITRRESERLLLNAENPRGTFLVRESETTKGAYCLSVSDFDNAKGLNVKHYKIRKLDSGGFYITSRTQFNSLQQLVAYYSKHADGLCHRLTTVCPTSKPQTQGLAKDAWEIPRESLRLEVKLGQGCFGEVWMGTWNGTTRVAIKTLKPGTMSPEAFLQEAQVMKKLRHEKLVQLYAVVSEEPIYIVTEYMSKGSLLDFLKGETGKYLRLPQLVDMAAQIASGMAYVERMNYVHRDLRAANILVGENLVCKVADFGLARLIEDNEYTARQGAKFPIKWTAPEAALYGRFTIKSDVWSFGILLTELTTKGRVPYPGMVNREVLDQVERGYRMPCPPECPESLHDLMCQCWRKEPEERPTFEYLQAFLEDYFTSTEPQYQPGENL
From the text: Recombinant human Src was purchased from Upstate (Lake Placid, N.Y.).

Recombinant human Abl = target: T2, Recombinant human Abl (Homo sapiens, UniProt P00519); assay: Enzymatic assay on isolated Abl; type: biochemical; conditions: mean of at least two experiments
T2 construct: purchased Upstate
T2 sequence (P00519 whole entry): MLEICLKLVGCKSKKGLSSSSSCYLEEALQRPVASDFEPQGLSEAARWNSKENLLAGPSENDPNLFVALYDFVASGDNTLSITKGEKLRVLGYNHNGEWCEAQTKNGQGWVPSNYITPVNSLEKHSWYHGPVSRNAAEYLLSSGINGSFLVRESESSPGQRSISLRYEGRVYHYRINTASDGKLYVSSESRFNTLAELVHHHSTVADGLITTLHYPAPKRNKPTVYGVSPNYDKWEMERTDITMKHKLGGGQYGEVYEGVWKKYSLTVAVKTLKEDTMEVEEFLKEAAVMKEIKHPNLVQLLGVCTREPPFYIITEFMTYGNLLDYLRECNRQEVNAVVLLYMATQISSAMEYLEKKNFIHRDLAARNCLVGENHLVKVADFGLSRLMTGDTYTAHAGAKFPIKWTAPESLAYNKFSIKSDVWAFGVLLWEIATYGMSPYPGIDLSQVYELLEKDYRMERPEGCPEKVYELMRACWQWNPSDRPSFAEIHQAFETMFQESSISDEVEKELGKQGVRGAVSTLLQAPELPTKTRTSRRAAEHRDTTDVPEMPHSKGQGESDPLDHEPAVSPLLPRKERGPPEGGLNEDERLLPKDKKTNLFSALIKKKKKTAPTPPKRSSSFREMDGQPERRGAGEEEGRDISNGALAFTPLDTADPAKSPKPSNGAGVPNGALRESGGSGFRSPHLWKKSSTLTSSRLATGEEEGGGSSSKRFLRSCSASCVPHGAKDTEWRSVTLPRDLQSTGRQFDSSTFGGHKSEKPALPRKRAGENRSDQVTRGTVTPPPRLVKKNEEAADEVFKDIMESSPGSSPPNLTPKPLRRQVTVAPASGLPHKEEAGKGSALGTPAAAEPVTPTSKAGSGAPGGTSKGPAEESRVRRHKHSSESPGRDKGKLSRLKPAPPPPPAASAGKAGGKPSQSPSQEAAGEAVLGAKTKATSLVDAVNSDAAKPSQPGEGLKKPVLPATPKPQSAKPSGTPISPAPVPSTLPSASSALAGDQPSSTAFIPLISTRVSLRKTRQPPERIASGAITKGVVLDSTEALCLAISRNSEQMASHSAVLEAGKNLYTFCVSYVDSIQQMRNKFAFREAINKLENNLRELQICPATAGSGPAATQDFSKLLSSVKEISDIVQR
Method: Recombinant human Abl was purchased from Upstate.
Activity was measured in a filter binding assay using an Abl specific peptide substrate (Abtide, Upstate).

recombinant Fyn = recombinant Fyn (Homo sapiens, UniProt P06241); assay: Enzymatic assay on isolated Fyn kinase
recombinant Fyn, sequence (P06241 whole entry, looked up): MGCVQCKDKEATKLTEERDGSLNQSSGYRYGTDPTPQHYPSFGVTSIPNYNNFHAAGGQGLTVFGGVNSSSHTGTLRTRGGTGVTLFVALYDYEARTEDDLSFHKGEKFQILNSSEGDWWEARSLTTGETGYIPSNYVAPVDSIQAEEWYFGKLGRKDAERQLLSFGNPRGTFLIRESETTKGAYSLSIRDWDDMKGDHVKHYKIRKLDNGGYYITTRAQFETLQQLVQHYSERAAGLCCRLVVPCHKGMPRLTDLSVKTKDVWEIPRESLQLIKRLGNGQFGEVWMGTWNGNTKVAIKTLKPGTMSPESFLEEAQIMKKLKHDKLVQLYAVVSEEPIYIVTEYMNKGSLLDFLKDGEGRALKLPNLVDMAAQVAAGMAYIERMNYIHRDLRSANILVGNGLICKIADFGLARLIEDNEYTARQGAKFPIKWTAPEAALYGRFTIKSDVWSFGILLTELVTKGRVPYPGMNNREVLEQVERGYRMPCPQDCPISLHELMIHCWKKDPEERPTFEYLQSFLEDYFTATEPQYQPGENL
Method: Kinase assays were performed in presence of 200 μM ATP and 100 μM peptide substrate. All inhibition assays were conducted with 0.01 μg active kinase, 0.33 μmol [^γ32P]ATP, 60 mM HEPES-NaOH pH 7.5, 3 μM Na-orthovanadate, 1.2 mM DTT, 50 μg/ml PEG20.0000, 10 mM magnesium acetate, 0.004% NP40 and 10% DMSO in a final volume of 10 μL. Fyn and inhibitors were preincubated in ice for 5 min; after addition of the substrates the reaction was conducted at 30° C. for 10 min. The reaction was stopped by adding 5 μL of 3% phosphoric acid. Aliquots (10 μL) were then transferred into a P30 Filtermat (PerkinElmer), washed five times with 75 mM phosphoric acid and once with acetone for 5 minute. The filter was dried and transferred to a sealable plastic bag, and scintillation cocktail (4 mL) was added. Spotted reactions were read in a MicroBeta Liquid (Perkinelmer) scintillation counter. The ID50 values were obtained according to the following equation:
Ki values toward recombinant Fyn were calculated using the equation:
according to a competitive mechanism of inhibition toward ATP substrate, where [SATP] is the concentration of ATP. Curve fitting was performed with the program GraphPad Prism version 5.00.

Water solubility assay = conditions: for H2O Solubility: Table 6; for solubility at 24 h / solubility thermodynamic at 24 h: water, 20 °C, thermodynamic from solid
Method: Each solid compound (1 mg) was added to 1 mL of water. […] The suspensions were filtered through a 0.45 μm nylon filter (Acrodisc), and the solubilized compound determined by LC-MS-MS assay. For each compound the determination was performed in triplicate. […] The flow rate was 0.2 mL min-^−1 and injection volume was 5 μL. The instrument operated in positive mode and parameters were: detector 1850 V, drying gas pressure 25.0 psi, desolvation temperature 300.0° C., nebulizing gas 40.0 psi, needle 5000 V and shield 600 V. Nitrogen was used as nebulizer gas and drying gas.
Solid compound (1 mg) was added to 1 mL of water. […] The suspensions were filtered through a 0.45-μm nylon filter (Acrodisc), and the solubilised compound determined by LC-UV-MS assay. The determination was performed in triplicate.
Chromatographic analysis was performed with the method above reported and quantification of compounds was made by comparison with apposite calibration curves realized with standard solutions in methanol.

[1] = Microsomal stability assay; conditions: for Metabolic Stab.: percentage of unmodified parent drug, human liver microsomes 60 min
[2] = PAMPA, intestinal (GI) permeability; conditions: for Papp / Papp at 5 h, 0.5 mM: PAMPA; for Papp: Table 6; for PAMPA GI (MR %): Membrane Retention; for Papp at 5 h, 0.5 mM: pH 7.4
Method: (§1) Donor solution (0.5 mM) was prepared by diluting 1 mM dimethylsulfoxide (DMSO) compound stock solution using phosphate buffer (pH 7.4, 0.025 M). […] Donor solution (150 μL) was added to each well of the filter plate. To each well of the acceptor plate were added 300 μL of solution (50% DMSO in phosphate buffer). All compounds were tested in three different plates on different days. The sandwich was incubated for 5 h at room temperature under gentle shaking. After the incubation time, the plates were separated, and samples were taken from both receiver and donor sides and analyzed using LC with UV detection at 280 nm.
(§2) Permeability (Papp) for PAMPA was calculated according to the following equation, obtained from Wohnsland and Faller^27 and Sugano et al.^28 equation with some modification in order to obtain permeability values in cm s^−1,
(§3) Drug concentration is estimated by using the peak area integration. Membrane retentions (%) were calculated according to the following equation:
(§4) where r is the ratio between drug concentration in the acceptor and equilibrium concentration, D, A, and Eq represented drug concentration in the donor, acceptor and equilibrium solution, respectively.
(§5) Donor solution of tested compounds (0.5 mM) was prepared by diluting 1 mM dimethylsulfoxide (DMSO) compound stock solution using phosphate buffer (pH 7.4, 25 mM). […] Donor solution (150 μL) was added to each well of the filter plate. To each well of the acceptor plate were added 300 μL of solution (50% DMSO in phosphate buffer). Compounds was tested in three different plates on different days. The sandwich was incubated for 5 h at room temperature under gentle shaking.
(§6) Permeability (Papp) for PAMPA was calculated according to the following equation, obtained from Wohnsland and Faller and Sugano et al.^27, 28.
(§7) Drug concentration is estimated by using the peak area integration. Membrane retention (%) was calculated according to the following equation:

K562 cells = assay: Antiproliferative activity on human cell line K562; type: cell-based; conditions: Homo sapiens, K562, read-out: Cellular Data (IC50, μM) K562
Method: In vitro experiments were carried out using the human Chronic Myelogeneous Leukemia cell line K562. Cells were purchased from American Type Culture Collection (ATCC, Manassas, Va., USA) and were cultured in RPMI medium supplemented with 10% Foetal Bovine Serum. […] Cell number and vitality were evaluated using the automatic cell counter NucleoCounteri (Chemometec, Denmark). Results from the NucleoCounter represented either total or non-viable cell concentration, depending on the sample preparation indicated by manufacturer.
In vitro experiments were carried out using the human Chronic Myelogeneous Leukemia cell line K562. Cells were purchased from American Type Culture Collection (ATCC, Manassas, Va., USA) and were cultured in RPMI medium supplemented with 10% Foetal Bovine Serum. […] Cell number and vitality were evaluated using the automatic cell counter NucleoCounter® (Chemometec, Denmark). Results from the NucleoCounter represented either total or non-viable cell concentration, depending on the sample preparation indicated by manufacturer.

[3] = Stability tests in phosphate buffer and methanol; type: physicochemical; conditions: 20° C., 48 h incubation
[4] = Enzymatic stability in human plasma; type: in vitro ADME; conditions: for half-life at 100 μM: human, pooled human plasma diluted with phosphate buffer, pH 7.4
PAMPA, BBB permeability = conditions: for PAMPA BBB (MR %): Membrane Retention; for Papp at 5 h, 0.5 mM: PAMPA, pH 7.4
Method: as §1, §2, §3, §4, §5, §6, §7

[5] = mean of at least two experiments, read-out: Enzymatic Data (Ki, μM) c-Src
[6] = methanol, read-out: Stability MeOH t1/2
[7] = phosphate buffer, pH 7.4, read-out: Stability PBS pH 7.4 t1/2
[8] = 37° C., read-out: Stability Human Plasma t1/2 (converted)
[9] = read-out: t1/2 in human plasma (converted)

| SMILES | half-life at 500 μM [3, 6] | half-life at 500 μM [3, 7] | solubility at 24 h (Water solubility assay) | solubility thermodynamic at 24 h (Water solubility assay) | PAMPA BBB (MR %) (PAMPA, BBB permeability) | Papp at 5 h, 0.5 mM (PAMPA, BBB permeability) | PAMPA GI (MR %) [2] | Papp at 5 h, 0.5 mM [2] | Ki (Recombinant human Abl) | melting point | further results |
| --- | --- | --- | --- | --- | --- | --- | --- | --- | --- | --- | --- |
| Clc1cccc(Nc2nc(SC3CCCC3)nc3c2cnn3CC(Cl)c2ccccc2)c1 (centres unmarked) |  |  |  |  |  |  |  |  | > 100 µM |  | Ki (Recombinant human Src): > 100 µM; Ki (recombinant Fyn): > 100 µM |
| Nc1ncnc2c1c(-c1ccccc1)nn2CC(Cl)c1ccccc1 (centres unmarked) (as salt: hydrochloride) [Si244, 1-(2-Chloro-2-phenylethyl)-3-phenyl-1H-pyrazolo[3,4-d]pyrimidin-4-amine hydrochloride] |  |  |  |  |  |  |  |  |  | 129 to 132 °C |  |
| CCC(C)Sc1nc(NCc2ccccc2)c2cnn(CC(Cl)c3ccccc3)c2n1 (centres unmarked) [Si146, N-benzyl-6-(sec-butylthio)-1-(2-chloro-2-phenylethyl)-1H-pyrazolo[3,4-d]pyrimidin-4-amine] |  |  |  |  |  |  |  |  |  | 112 to 113 °C |  |
| CCC(C)Sc1nc(NCCc2ccccc2)c2cnn(CC(Cl)c3ccccc3)c2n1 (centres unmarked) [Si147, 6-(Sec-butylthio)-1-(2-chloro-2-phenylethyl)-N-(2-phenylethyl)-1H-pyrazolo[3,4-d]pyrimidin-4-amine] |  |  |  |  |  |  |  |  |  | 97 to 98 °C |  |
| Clc1cccc(Nc2nc(SCCN3CCOCC3)nc3c2cnn3CC(Cl)c2ccccc2)c1 (centres unmarked) [Si181, 1-(2-chloro-2-phenylethyl)-N-(3-chlorophenyl)-6-((2-morpholinoethyl)thio)-1H-pyrazolo[3,4-d]pyrimidin-4-amine, reference compound] |  |  |  |  |  |  |  |  | 0.12 µM |  | Ki (Recombinant human Src; [5]): 0.19 µM; H2O Solubility (Water solubility assay): 0.1 µg/mL; Metabolic Stab. [1]: 95%; Papp [2]: 9.5 10^−6 cm/sec |
| Nc1ncnc2c1c(-c1ccc(F)cc1)nn2CC(Cl)c1ccccc1 (centres unmarked) [Si310, 1-(2-Chloro-2-phenylethyl)-3-(4-fluorophenyl)-1H-pyrazolo[3,4-d]pyrimidin-4-amine] |  |  |  |  |  |  |  |  |  | 203 to 206 °C | IC50 (K562 cells): 12.6 ± 14.8 µM; Ki (recombinant Fyn; read-out: Enzymatic Data (Ki, μM) Fyn): 0.36 µM |
| CC(Cn1nc(-c2ccccc2)c2c(N)ncnc21)c1ccccc1 (centres unmarked) [Si312, 3-Phenyl-1-(2-phenylpropyl)-1H-pyrazolo[3,4-d]pyrimidin-4-amine] |  |  |  |  |  |  |  |  |  | 105 to 109 °C | decreased Fyn activity on substitution of chlorine by methyl in N1 side chain (recombinant Fyn): about 10 fold |
| CSc1nc(Nc2cccc(O)c2)c2cnn(CC(Cl)c3ccccc3)c2n1 (centres unmarked) [Si322] |  |  |  |  |  |  |  |  | 0.15 µM |  | Ki (Recombinant human Src; read-out: Ki c-Src): 0.03 µM; H2O Solubility (Water solubility assay): 4.3 µg/mL; Metabolic Stab. [1]: 98%; Papp [2]: 5.92 10^−6 cm/sec |
| CC(C)Sc1nc(Nc2cccc(O)c2)c2cnn(CC(Cl)c3ccccc3)c2n1 (centres unmarked) [Si323] |  |  |  |  |  |  |  |  | 0.12 µM |  | Ki (Recombinant human Src; read-out: Ki c-Src): 0.01 µM; H2O Solubility (Water solubility assay): 0.9 µg/mL; Metabolic Stab. [1]: 95%; Papp [2]: 4.53 10^−6 cm/sec |
| Fc1ccc(CCn2ncc3c(Nc4cccc(Cl)c4)nc(SCCN4CCOCC4)nc32)cc1 [Si327, N-(3-Chlorophenyl)-1-[2-(4-fluorophenyl)ethyl]-6-[(2-morpholin-1-ylethyl)thio]-1H-pyrazolo[3,4-d]pyrimidin-4-amine] |  |  |  |  |  |  |  |  |  | 127 to 128 °C | Ki (Recombinant human Src; read-out: Ki c-Src): ~0.1 µM |
| Oc1cccc(Nc2nc(SC3CCCC3)nc3c2cnn3CC(Cl)c2ccccc2)c1 (centres unmarked) [Si330] |  |  |  |  |  |  |  |  | 0.15 µM |  | Ki (Recombinant human Src; read-out: Ki c-Src): 0.007 µM; H2O Solubility (Water solubility assay): 0.6 µg/mL; Metabolic Stab. [1]: 91%; Papp [2]: 3.91 10^−6 cm/sec |
| CC(=O)c1ccc(-c2nn(CC(C)c3ccccc3)c3ncnc(N)c23)cc1 (centres unmarked) [Si336, 1-{4-[4-Amino-1-(2-phenylpropyl)-1H-pyrazolo[3,4-d]pyrimidin-3-yl]phenyl}ethanone] |  |  |  |  |  |  |  |  |  | 232 to 235 °C |  |
| Cc1ccc(-c2nn(CC(C)c3ccccc3)c3ncnc(N)c23)cc1 (centres unmarked) [Si338, 3-(4-Methylphenyl)-1-(2-phenylpropyl)-1H-pyrazolo[3,4-d]pyrimidin-4-amine] |  |  |  |  |  |  |  |  |  | 152 to 155 °C | decreased Fyn activity on substitution of chlorine by methyl in N1 side chain (recombinant Fyn; Si312 vs Si244, Si337 vs Si308, Si338 vs Si309): about 10 fold; Ki (recombinant Fyn; read-out: Ki Fyn): 0.995 µM |
| Fc1cccc(Nc2nc(SC3CCCC3)nc3c2cnn3CC(Cl)c2ccccc2)c1 (centres unmarked) [drawing 179] |  |  |  |  |  |  |  |  | > 100 µM |  | Ki (Recombinant human Src; [5]): 0.11 µM; Metabolic Stab. [1]: 95%; Papp [2]: 14 10^−6 cm/sec |

The next lines start with results.

| half-life at 500 μM [3, 6] | half-life at 500 μM [3, 7] | solubility at 24 h (Water solubility assay) | solubility thermodynamic at 24 h (Water solubility assay) | PAMPA BBB (MR %) (PAMPA, BBB permeability) | Papp at 5 h, 0.5 mM (PAMPA, BBB permeability) | PAMPA GI (MR %) [2] | Papp at 5 h, 0.5 mM [2] | SMILES | Ki (Recombinant human Abl) | melting point | further results |
| --- | --- | --- | --- | --- | --- | --- | --- | --- | --- | --- | --- |
| > 48 h | > 48 h | 35.5 µM (≈ 18.9 µg/mL) | 18.8 µg/mL (≈ 35.2 µM) | (45.6) % | 5.01 ×10⁻⁶ cm/s | (40.1) % | 6.7 ×10⁻⁶ cm/s | CN1CCN(CCOC(=O)N(Cc2ccccc2)c2ncnc3c2cnn3CC(Cl)c2ccccc2)CC1 (centres unmarked) [proS13, 2-(4-Methylpiperazin-1-yl)ethyl benzyl(1-(2-chloro-2-phenylethyl)-1H-pyrazolo[3,4-d]pyrimidin-4-yl)carbamate] |  |  | half-life at 100 μM [4, 8]: > 48 h; Metabolic Stab. % ([1]; percentage of unmodified drug, Table 8): 86.4% |
| > 48 h | > 48 h | 7.08 µM (≈ 4.25 µg/mL) | 4.22 µg/mL (≈ 7.03 µM) | (47.0) % | 4.14 ×10⁻⁶ cm/s | (44.7) % | 4.95 ×10⁻⁶ cm/s | CSc1nc(N(C(=O)OCCN2CCN(C)CC2)c2cccc(Cl)c2)c2cnn(CC(Cl)c3ccccc3)c2n1 (centres unmarked) [proSi83, 2-(4-Methylpiperazin-1-yl)ethyl (1-(2-chloro-2-phenylethyl)-6-(methylthio)-1H-pyrazolo[3,4-d]pyrimidin-4-yl)(3-chlorophenyl)carbamate] |  |  | half-life at 100 μM [4, 8]: 3.28 h |
| > 48 h | > 48 h | 11.2 µM (≈ 6.35 µg/mL) | 6.32 µg/mL (≈ 11.2 µM) | (49.7) % | 4.3 ×10⁻⁶ cm/s | (63.1) % | 4.69 ×10⁻⁶ cm/s | CSc1nc(N(C(=O)OCCN2CCN(C)CC2)c2cccc(Cl)c2)c2cnn(CCc3ccccc3)c2n1 [proSi214, 2-(4-Methylpiperazin-1-yl)ethyl (3-chlorophenyl)(6-(methylthio)-1-phenethyl-1H-pyrazolo[3,4-d]pyrimidin-4-yl)carbamate] |  |  | half-life at 100 μM [4, 8]: 3.67 h |
| > 48 h | > 48 h | 3.09 µM (≈ 2 µg/mL) | 1.95 µg/mL (≈ 3.01 µM) | (79.4) % | 1.92 ×10⁻⁶ cm/s | (78.1) % | 2.38 ×10⁻⁶ cm/s | CN1CCN(CCOC(=O)N(Cc2ccccc2Cl)c2ncnc3c2cnn3CC(Cl)c2ccc(Br)cc2)CC1 (centres unmarked) [proSi221, 2-(4-Methylpiperazin-1-yl)ethyl (1-(2-(4-bromophenyl)-2-chloroethyl)-1H-pyrazolo[3,4-d]pyrimidin-4-yl)(2-chlorobenzyl)carbamate] |  |  | half-life at 100 μM [4, 8]: > 48 h |
| > 48 h | > 48 h | 5.37 µM (≈ 3.43 µg/mL) | 3.4 µg/mL (≈ 5.32 µM) | (70.6) % | 2.39 ×10⁻⁶ cm/s | (73.3) % | 2.15 ×10⁻⁶ cm/s | CSc1nc(N(C(=O)OC(C)CN2CCN(C)CC2)c2cccc(Br)c2)c2cnn(CC(C)c3ccccc3)c2n1 (centres unmarked) [proSi278 (B), 1-(4-Methylpiperazin-1-yl)propan-2-yl (3-bromophenyl)(6-(methylthio)-1-(2-phenylpropyl)-1H-pyrazolo[3,4-d]pyrimidin-4-yl)carbamate] |  |  | Stability Human Plasma t1/2 ([4]; 37° C.): 10.40 h; half-life at 100 μM [4, 9]: 10.4 h |
| > 48 h | > 48 h | 3.02 µM (≈ 1.97 µg/mL) | 1.96 µg/mL (≈ 3 µM) | (91.4) % | 0.93 ×10⁻⁶ cm/s | (88.1) % | 1.45 ×10⁻⁶ cm/s | CCC(CN1CCN(C)CC1)OC(=O)N(c1cccc(Br)c1)c1nc(SC)nc2c1cnn2CC(C)c1ccccc1 (centres unmarked) [proSi278 (C), 1-(4-Methylpiperazin-1-yl)butan-2-yl (3-bromophenyl)(6-(methylthio)-1-(2-phenylpropyl)-1H-pyrazolo[3,4-d]pyrimidin-4-yl)carbamate] |  |  | Stability Human Plasma t1/2 ([4]; 37° C.): 11.31 h; half-life at 100 μM [4, 9]: 11.3 h |
